From patent US5185340A, “Pyrimidinyl arylalkyl ethers with antihypertensive activity” (American Home Products Corporation, priority 1992, dated 1993)

What was measured:
[1] = target: angiotensin II receptor; assay: Rat adrenal receptor binding assay, displacement of radiolabeled angiotensin II; set-up: species or system rat (male Sprague-Dawley); conditions: rat adrenal cortex membranes; 125I-A II 1 nM; read-out: Inhibition of 125I-Angiotensin II binding, IC50
Experimental: The high affinity of the compounds for the angiotensin II receptor was established using a rat adrenal receptor binding assay, measuring the displacement of radiolabeled angiotensin II (A II) from the receptor, described as follows: Anesthetize male Sprague-Dawley rats (300-400 g body weight) with CO2 and sacrifice by cervical dislocation. Dissect adrenal glands and keep in ice-cold sucrose buffer. (0.2M sucrose, 1 mM EDTA, 10 mM Trizma base, pH=7.2). Remove medulla by squashing. Mince the cortex, rinse and homogenize in a chilled ground glass tissue grinder with 15 ml sucrose buffer. Centrifuge at 3000× g for 10 min. (Sorvall RCSC centrifuge, SS34 rotor 6200 rpm). Decant supernatant through gauze. Centrifuge combined supernatants at 12000× g for 13 min. (Beckman ultracentrifuge, 80Ti rotor, 13000 rpm). Centrifuge the supernatant from the previous step at 102000× g for 60 min. (Beckman ultracentrifuge,80Ti rotor, 38200 rpm). All steps are carried out at 4° C. Resuspend the pellet in 0.5 mL assay buffer (50 mM Tris HCI, 5 mM MgCl2, 0.2% BSA (proteasefree), pH=7.4, 25° C.). Store on ice. Determine membrane protein by Lowry or Bradford assay with BSA as standard. The binding assay is performed in triplicate, in 12×75 mm plastic test tubes or in 96-well plate (final volume of 0.25 mL). Add 140 μL assay buffer. […] Calculate the quantities of hot A II and the cold A II needed and make the dilution. […]

[2] = system: Angiotensin II infused rat; assay: Reduction of blood pressure in Angiotensin II infused rat; assay type: in vivo; conditions: 3 mg/kg/ml via duodenal cannula
Experimental: In accordance with their ability to antagonize angiotensin II, the compounds of this invention show antihypertensive action in the following A II-infused rat model. Rats are anesthetized with Dial-Urethane (0.60 mL/kg, ip) and the trachea cannulated with PE 240. Either one femoral artery and both femoral veins or the carotid artery and the corresponding jugular vein are cannulated with PE 50. If the jugular vein is cannulated, two cannulas are placed in the one vein. The initial portion of the duodenum (just distal to the stomach) is cannulated with PE 50 via a small midline incision. Arterial pressure and heart rate are measured from the arterial cannula. Ten to 15 min are allowed following surgery for stabilization of arterial pressure. Ganglion blockade is then produced by intravenous administration of mecamylamine at 3 mg/kg (1 mL/kg of a 3 mg/mL solution). Ganglion blockade causes a fall in arterial pressure of about 50 mmHg. Mecamylamine is given every 90 min throughout the remainder of the experiment. An A II infusion is then begun into the other venous cannula at 0.25 μg/kg/min (at […]). The A II infusion returns arterial pressure to or slightly above the control level. Once arterial pressure has stabilized with the A II infusion, baseline values for mean arterial pressure (MAP) and heart rate are taken. The test compound, suspended in methyl cellulose, is then administered via the duodenal cannula at 0.1, 3 or, 30 mg/kg in a volume of 1 mL/kg. Mean arterial pressure and heart rate values are tabulated at 15, 30, 60, 90, 120, 150, 180, 210, and 240 min after administration of the test compound.

| IC50 [1] | SMILES | % decrease in MAP ([2]; 15 min) | % decrease in MAP ([2]; 90 min) | % decrease in MAP ([2]; 240 min) |
| --- | --- | --- | --- | --- |
| 0.2 µM | CCCc1c(CC)nc(C(F)(F)F)nc1OCc1ccc(-c2ccccc2-c2nnn[nH]2)cc1 [Example 4, 6-Ethyl-5-propyl-4-[[2'-(1H-tetrazol-5-yl)[1,1'-biphenyl]-4-yl]methoxy]-2-(trifluoromethyl)pyrimidine] | – | – | – |
| 0.038 µM | FC(F)(F)c1nc2c(c(OCc3ccc(-c4ccccc4-c4nnn[nH]4)cc3)n1)CCCC2 [Example 5, 4-[[2'-(1H-Tetrazol-5-yl)-biphenyl-4-yl]methoxy]-2-trifluoromethyl-5,6,7,8-tetrahydroquinazoline] | 22% | 15% | 0% |
